Test results as given in US20260274892A1, “MACROCYCLIC BROAD SPECTRUM ANTIBIOTICS” (RQx Pharmaceuticals, Inc., priority 2017, published 2026).

Columns and labels:
[1] = system: Methicillin Resistant Staphylococcus aureus strain USA 200; assay: Minimum inhibitory concentration (MIC), CLSI broth micro-dilution, S. aureus; format: cell-based; settings: Staphylococcus aureus, MRSA / USA200; Table 6; MRSA USA 200; cation adjusted Mueller Hinton Broth + 0.002% Tween-80; 35° C., 22 hours
Outline: (§1)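 Colonies grown 20 h at 35° C on Trypticase Soy agar (MRSA) or Luria agar (E. coli) were suspended in cation-adjusted Mueller Hinton broth with 0.002% Tween-80. Suspensions were added at OD600 0.0005 to 10-point twofold compound dilutions, then incubated 22 h at 35° C.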

[2] = system: Escherichia coli ATCC 25922; assay: Minimum inhibitory concentration (MIC), CLSI broth micro-dilution, E. coli; format: cell-based; settings: Escherichia coli, ATCC25922, 22 h, Table 6, cation adjusted Mueller Hinton Broth + 0.002% Tween-80, 35° C.
Outline: as §1

| Compound | MIC [1] [µM] | MIC [2] [µM] |
| --- | --- | --- |
| Cc1nc(-c2ccc(N3CCCCCCC3)cc2)nc(C)c1C(=O)N[C@@H](CCN)C(=O)N(C)[C@@H]1C(=O)N[C@@H](C)C(=O)N[C@H](C(=O)NCC#N)Cc2ccc(OCCN)c(c2)-c2cc1ccc2OCCN (racemic) [Compound 326, rac-(8S,11S,14S)-3,18-bis(2-aminoethoxy)-N-(cyanomethyl)-11-methyl-14-[methyl-[rac-(2S)-4-amino-2-[[2-[4-(azocan-1-yl)phenyl]-4,6-dimethyl-pyrimidine-5-carbonyl]amino]butanoyl]amino]-10,13-dioxo-9,12-diazatricyclo[13.3.1.12,6]icosa-1(18),2(20),3,5,15(19),16-hexaene-8-carboxamide] | 0.031 | 0.13 |
| Cc1nc(-c2cnc(-c3ccc(C(C)(C)C)cc3)nc2)ncc1C(=O)N[C@@H](CCN)C(=O)N(C)[C@@H]1C(=O)N[C@@H](C)C(=O)N[C@H](C(=O)NCC#N)Cc2ccc(OCCN)c(c2)-c2cc1ccc2OCCN (racemic) [Compound 232, rac-(8S,11S,14S)-3,18-bis(2-aminoethoxy)-N-(cyanomethyl)-11-methyl-14-[methyl-[rac-(2S)-4-amino-2-[[2-[2-(4-tert-butylphenyl)pyrimidin-5-yl]-4-methyl-pyrimidine-5-carbonyl]amino]butanoyl]amino]-10,13-dioxo-9,12-diazatricyclo[13.3.1.12,6]icosa-1(18),2(20),3,5,15(19),16-hexaene-8-carboxamide] | 0.015 | 0.16 |
| CCCCCCCCc1ccc(C(=O)N[C@@H](CCC(=O)NCC)C(=O)N(C)[C@@H]2C(=O)N[C@@H](C)C(=O)N[C@H](C(=O)NCC#N)Cc3ccc(OCCN)c(c3)-c3cc2ccc3OCCN)c(C)c1 (racemic) [Compound 445, rac-(2S)-N′-ethyl-N-methyl-2-[(2-methyl-4-octyl-benzoyl)amino]-N-[rac-(7S,10S,13S)-3,18-bis(2-aminoethoxy)-13-(cyanomethylcarbamoyl)-10-methyl-8,11-dioxo-9,12-diazatricyclo[13.3.1.12,6]icosa-1(19),2,4,6(20),15,17-hexaen-7-yl]pentanediamide] | 0.13 | 4.1 |
| Cc1cc(-c2ccc(C(C)(C)C)cc2)nc(C)c1C(=O)N[C@@H](CCN)C(=O)N(C)[C@@H]1C(=O)N[C@@H](C)C(=O)N[C@H](C(=O)NCC#N)Cc2ccc(O)c(c2)-c2cc1ccc2OCCN (racemic) [Compound 530, rac-(8S,11S,14S)-18-(2-aminoethoxy)-N-(cyanomethyl)-3-hydroxy-11-methyl-14-[methyl-[rac-(2S)-4-amino-2-[[6-(4-tert-butylphenyl)-2,4-dimethyl-pyridine-3-carbonyl]amino]butanoyl]amino]-10,13-dioxo-9,12-diazatricyclo[13.3.1.12,6]icosa-1(18),2(20),3,5,15(19),16-hexaene-8-carboxamide] | 0.063 | 0.35 |
| CCCCc1ccc(-c2ccn(-c3ccc(C(=O)N[C@@H](CCN)C(=O)N(C)[C@@H]4C(=O)N[C@@H](C)C(=O)N[C@H](C(=O)NCC#N)Cc5ccc(OCCN)c(c5)-c5cc4ccc5OCCN)c(C)c3)n2)cc1 (racemic) [Compound 201, rac-(8S,11S,14S)-3,18-bis(2-aminoethoxy)-N-(cyanomethyl)-11-methyl-14-[methyl-[rac-(2S)-4-amino-2-[[4-[3-(4-butylphenyl)pyrazol-1-yl]-2-methyl-benzoyl]amino]butanoyl]amino]-10,13-dioxo-9,12-diazatricyclo[13.3.1.12,6]icosa-1(18),2(20),3,5,15(19),16-hexaene-8-carboxamide] | 0.062 | 0.42 |
| Cc1nc(-c2ccc(CC3CCC3)cc2)ncc1C(=O)N[C@@H](CCN)C(=O)N(C)[C@@H]1C(=O)N[C@@H](C)C(=O)N[C@H](C(=O)NCC#N)Cc2ccc(OCCN)c(c2)-c2cc1ccc2OCCN (racemic) [Compound 217, rac-(8S,11S,14S)-3,18-bis(2-aminoethoxy)-N-(cyanomethyl)-11-methyl-14-[methyl-[rac-(2S)-4-amino-2-[[2-[4-(cyclobutylmethyl)phenyl]-4-methyl-pyrimidine-5-carbonyl]amino]butanoyl]amino]-10,13-dioxo-9,12-diazatricyclo[13.3.1.12,6]icosa-1(18),2(20),3,5,15(19),16-hexaene-8-carboxamide] | 0.0082 | 0.099 |
| Cc1nc(-c2cccc(OC(C)C)c2)ncc1C(=O)N[C@@H](CCN)C(=O)N(C)[C@@H]1C(=O)N[C@@H](C)C(=O)N[C@H](C(=O)NCC#N)Cc2ccc(OCCN)c(c2)-c2cc1ccc2OCCN (racemic) [Compound 251, rac-(8S,11S,14S)-3,18-bis(2-aminoethoxy)-N-(cyanomethyl)-11-methyl-14-[methyl-[rac-(2S)-4-amino-2-[[2-(3-isopropoxyphenyl)-4-methyl-pyrimidine-5-carbonyl]amino]butanoyl]amino]-10,13-dioxo-9,12-diazatricyclo[13.3.1.12,6]icosa-1(18),2(20),3,5,15(19),16-hexaene-8-carboxamide] | 0.067 | 1.1 |
| Cc1nc(-c2ccc(C(C)(C)C)cc2)nc(C)c1C(=O)N[C@@H](CCN)C(=O)N(C)[C@@H]1C(=O)N[C@@H](C)C(=O)N[C@H](C(=O)NCC#N)Cc2ccc(OCCCN)c(c2)-c2cc1ccc2OCCCN (racemic) [Compound 434, rac-(8S,11S,14S)-3,18-bis(3-aminopropoxy)-N-(cyanomethyl)-11-methyl-14-[methyl-[rac-(2S)-4-amino-2-[[2-(4-tert-butylphenyl)-4,6-dimethyl-pyrimidine-5-carbonyl]amino]butanoyl]amino]-10,13-dioxo-9,12-diazatricyclo[13.3.1.12,6]icosa-1(18),2(20),3,5,15(19),16-hexaene-8-carboxamide] | 0.023 | 0.21 |
| Cc1nc(-c2ccc(CC(C)C)cc2)nc(C)c1C(=O)N[C@@H](CCN)C(=O)N(C)[C@@H]1C(=O)N[C@@H](C)C(=O)N[C@H](C(=O)NCC#N)Cc2ccc(OCCN)c(c2)-c2cc1ccc2OCCN (racemic) [Compound 258, rac-(8S,11S,14S)-3,18-bis(2-aminoethoxy)-N-(cyanomethyl)-11-methyl-14-[methyl-[rac-(2S)-4-amino-2-[[2-(4-isobutylphenyl)-4,6-dimethyl-pyrimidine-5-carbonyl]amino]butanoyl]amino]-10,13-dioxo-9,12-diazatricyclo[13.3.1.12,6]icosa-1(18),2(20),3,5,15(19),16-hexaene-8-carboxamide] | 0.012 | 0.13 |
| CCCCCCCc1ccc(C(=O)N[C@@H](CCN)C(=O)N(C)[C@@H]2C(=O)N[C@@H](C)C(=O)N[C@H](C(=O)NCC#N)Cc3ccc(OCCN)c(c3)-c3cc2ccc3OCCN)c(OCC(=O)O)c1 (racemic) [Compound 379, 2-[5-heptyl-2-[[rac-(1S)-3-amino-1-[methyl-[rac-(7S,10S,13S)-3,18-bis(2-aminoethoxy)-13-(cyanomethylcarbamoyl)-10-methyl-8,11-dioxo-9,12-diazatricyclo[13.3.1.12,6]icosa-1(19),2,4,6(20),15,17-hexaen-7-yl]carbamoyl]propyl]carbamoyl]phenoxy]acetic acid] | 0.26 | 1 |
